# Reference: patent publication US4061862A, “Derivatives of 7-(cyclized)phenylglycyl-3-triazolo-thio methyl cephalosporin” (priority 1976, dated 1977)
# Test: Bio-assay (mcg./mg.)
# Settings: sesquihydrate
# Description: 7-[D-α-amino-α-(p-hydroxyphenyl)acetamido]-3-(1,2,3-triazol-5-ylthiomethyl)-3-cephem-4-carboxylic acid methanol solvate (15 g.) was slurried in 60 ml. of water. The pH was raised to 6.5 by addition of 4N NaOH and the mixture was passed through a 200 mesh screen. The reaction mixture was slurried at room temperature for 2 hours, the pH being maintained at 6.5 during this period. The crystals were removed by filtration, washed with 20 ml. of water and air dried at 37° C. for 24 hours to give 11.5 g. of title crystalline product. Bio assay = 924 mcg./mg. (average % H2 O, K.F. = 5.26).
# 7-[D-α-amino-α-(p-hydroxyphenyl)acetamido]-3-(1,2,3-triazol-5-ylthiomethyl)-3-cephem-4-carboxylic acid methanol solvate (200 mesh; 10.0 g.) substantially free of propylene glycol is slurried in 30-40 ml. of deionized water at ambient room temperature (20°-25° C.) to give a pH 3-4 aqueous suspension. NaOH (40%) is slowly added with rapid stirring to bring the pH to 6.3-6.7. The mixture is slurried at pH 6.3-6.7 for 2 hours. The crystals are removed by filtration, washed with water and air dried at room temperature for 24 hours to give a 75-80% weight yield of 950-1000 mcg./mg. crystals of 7-[D-α-amino-α-(p-hydroxyphenyl)acetamido]-3-(1,2,3-triazol-5-ylthiomethyl)-3-cephem-4-carboxylic acid dihydrate. […] H2 O, K.F. = 6.56.
compound,measurement,value
"N[C@@H](C(=O)NC1C(=O)N2C(C(=O)O)=C(CSc3c[nH]nn3)CS[C@H]12)c1ccc(O)cc1 (stereo partly drawn) [7-[D-α-amino-α-(p-hydroxyphenyl)acetamido]-3-(1,2,3-triazol-5-ylthiomethyl)-3-cephem-4-carboxylic acid sesquihydrate]",Bio-assay,924 µg/mg
